Here are results for two compounds from patent US4312867A, “Antibacterial compounds, processes for their preparation and compositions containing them” (Beecham Group Limited, priority 1979, dated 1982).

Values after ≈ are worked out from the molar mass of the structure shown.

The test system of one series is M bovis ATCC 25025. Description: in vitro anti-mycoplasmal MIC, Friis' agar (Table 3). The format is cell-based. The method, then:
(§1) The minimum inhibitory concentrations (MIC) of the examples were determined by either:
(§2) or (ii) by serial dilution in Friis' agar medium.

The subject of a further series is M bovis NCTC 10131. Described as above. The series is classed as cell-based. Here is the method: as §1, §2
Series [1] can be described thus: Mean serum concentrations in neonatal piglets after intramuscular or oral administration. The format is in vivo. Particulars: pig, 50 mg/kg. The method, then: (f) Mean serum concentrations in neonatal piglets after intramuscular or oral administration at 50 mg/kg of 6-sulphamoylhexyl monate A
Blood levels were assessed in neonatal piglets (2 to 4 animals per group and mean bodyweights about 2 kg). The dose was 50 mg/kg (dose solution=25 mg/ml in 25% ethanol). Doses were given by intramuscular injection and orally by stomach tube. Piglets were bled at intervals up to 6 and at 24 hours, and serum assayed microbiologically (B. subtilis ATCC 6633).

The subject of a further series is Past haemolytica PA5. Put plainly: MIC veterinary bacteria (Table 2), serial dilution in agar. To be noted: diagnostic sensitivity test agar. The series is classed as cell-based.

Usually MIC stands for the lowest concentration found to suppress growth. Low values mean greater potency, high ones weaker potency. Consider `C/C(=C\C(=O)OCCCCCCS(N)(=O)=O)CC1OCC(CC2OC2C(C)C(C)O)C(O)C1O` (stereo not shown) [Example 2, 6-Sulphamoylhexyl monate A], for which the MIC with M bovis ATCC 25025 is less than 0.02 µg/mL. The same compound registered an MIC against M bovis NCTC 10131 of less than 0.02 µg/mL. Also, in series [1] (im), the concentration at 10 min amounted to 31400 ng/mL, the concentration at 20 min stood at 31200 ng/mL, the concentration at 40 min came to 23700 ng/mL and the concentration at 1 h stood at 17300 ng/mL. Also, in series [1] (im), the concentration at 2 h came to 9200 ng/mL, the concentration at 3 h turned out to be 3200 ng/mL, the concentration at 4 h came to 1020 ng/mL and the concentration at 5 h was less than 600 ng/mL. In series [1] (po), this compound yielded a concentration at 10 min of 5900 ng/mL, a concentration at 20 min of 8300 ng/mL, a concentration at 40 min of 8600 ng/mL and a concentration at 1 h of 5900 ng/mL. In series [1] (po), this compound registered a concentration at 2 h of 1800 ng/mL, a concentration at 3 h of 1500 ng/mL, a concentration at 4 h of 740 ng/mL and a concentration at 5 h of less than 510 ng/mL.

Compound `C/C(=C\C(=O)OCCCS(=O)(=O)N(C)C)CC1OCC(CC2OC2C(C)C(C)O)C(O)C1O` (stereo not shown) [Example 4, 3-N,N-Dimethylsulphamoylpropyl monate A] came in with a minimum inhibitory concentration (MIC) against Past haemolytica PA5 of 10 µg/mL (≈ 20.3 µM).
